Measured values as given in PubChem BioAssay (NCI).
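All cell lines were grown in 96-well plates and treated with compound for 48 hours. Abbreviation: GI50, concentration required for 50% inhibition of growth. TGI is the concentration that stops growth completely.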

Key:
Experiment in all cases: NCI anticancer screen, dose series, 48 h
NCI-H522 lung = system: NCI-H522 lung
SK-OV-3 ovarian = system: SK-OV-3 ovarian
OVCAR-5 ovarian = system: OVCAR-5 ovarian
HCC-2998 colon = system: HCC-2998 colon
RPMI-8226 leukemia = system: RPMI-8226 leukemia
M14 melanoma = system: M14 melanoma
MDA-MB-435 = system: MDA-MB-435
K-562 leukemia = system: K-562 leukemia
COLO 205 colon = system: COLO 205 colon
SF-295 CNS = system: SF-295 CNS
NCI-H460 lung = system: NCI-H460 lung
NCI/ADR-RES ovarian = system: NCI/ADR-RES ovarian
MDA-MB-231 breast = system: MDA-MB-231 breast
UO-31 renal = system: UO-31 renal
CCRF-CEM leukemia = system: CCRF-CEM leukemia
MOLT-4 leukemia = system: MOLT-4 leukemia
ACHN renal = system: ACHN renal
HT29 colon = system: HT29 colon
SK-MEL-2 melanoma = system: SK-MEL-2 melanoma
MALME-3M melanoma = system: MALME-3M melanoma
OVCAR-8 ovarian = system: OVCAR-8 ovarian
SW-620 colon = system: SW-620 colon
SF-268 CNS = system: SF-268 CNS
786-0 renal = system: 786-0 renal
BT-549 breast = system: BT-549 breast
MCF7 breast = system: MCF7 breast
TK-10 renal = system: TK-10 renal
A498 renal = system: A498 renal
RXF 393 renal = system: RXF 393 renal
NCI-H226 lung = system: NCI-H226 lung
HCT-15 colon = system: HCT-15 colon
UACC-62 melanoma = system: UACC-62 melanoma
SN12C renal = system: SN12C renal
KM12 colon = system: KM12 colon
OVCAR-4 ovarian = system: OVCAR-4 ovarian
SK-MEL-5 melanoma = system: SK-MEL-5 melanoma
T-47D breast = system: T-47D breast
SNB-75 CNS = system: SNB-75 CNS
HL-60(TB) leukemia = system: HL-60(TB) leukemia
SK-MEL-28 melanoma = system: SK-MEL-28 melanoma
HOP-92 NSCLC = system: HOP-92 NSCLC
A549 NSCLC = system: A549 NSCLC
CAKI-1 renal = system: CAKI-1 renal
EKVX NSCLC = system: EKVX NSCLC
UACC-257 melanoma = system: UACC-257 melanoma
SF-539 CNS = system: SF-539 CNS
HCT-116 colon = system: HCT-116 colon
SNB-19 CNS = system: SNB-19 CNS
DU-145 prostate = system: DU-145 prostate
NCI-H23 lung = system: NCI-H23 lung
OVCAR-3 ovarian = system: OVCAR-3 ovarian
IGROV1 ovarian = system: IGROV1 ovarian
SR leukemia = system: SR leukemia
HS 578T breast = system: HS 578T breast
PC-3 prostate = system: PC-3 prostate
U251 CNS = system: U251 CNS
LOX IMVI melanoma = system: LOX IMVI melanoma
HOP-62 NSCLC = system: HOP-62 NSCLC
MDA-N = system: MDA-N

Structure (SMILES): O=C(NCCc1ccccc1)C(c1csc2ccccc12)N(C(=O)CCl)c1ccc(-c2cnco2)cc1 (stereo unspecified)
- GI50 (NCI-H522 lung): 13.4 nM
- TGI (NCI-H522 lung): 29.5 nM
- GI50 (SK-OV-3 ovarian): 1250 nM
- TGI (SK-OV-3 ovarian): 2690 nM
- GI50 (OVCAR-5 ovarian): 682 nM
- TGI (OVCAR-5 ovarian): 2070 nM
- GI50 (HCC-2998 colon): 1690 nM
- TGI (HCC-2998 colon): 3220 nM
- GI50 (RPMI-8226 leukemia): 171 nM
- TGI (RPMI-8226 leukemia): 474 nM
- GI50 (M14 melanoma): 1380 nM
- TGI (M14 melanoma): 2830 nM
- GI50 (MDA-MB-435): 1540 nM
- TGI (MDA-MB-435): 3180 nM
- GI50 (K-562 leukemia): 509 nM
- TGI (K-562 leukemia): > 20700 nM
- GI50 (COLO 205 colon): 1560 nM
- TGI (COLO 205 colon): 3280 nM
- GI50 (SF-295 CNS): 156 nM
- TGI (SF-295 CNS): 302 nM
- GI50 (NCI-H460 lung): 631 nM
- GI50 (NCI/ADR-RES ovarian): 114 nM
- TGI (NCI/ADR-RES ovarian): 1170 nM
- GI50 (MDA-MB-231 breast): 226 nM
- TGI (MDA-MB-231 breast): 1360 nM
- GI50 (UO-31 renal): 17.3 nM
- TGI (UO-31 renal): 35.4 nM
- GI50 (CCRF-CEM leukemia): 22.9 nM
- TGI (CCRF-CEM leukemia): 59.4 nM
- GI50 (MOLT-4 leukemia): 209 nM
- TGI (MOLT-4 leukemia): 678 nM
- GI50 (ACHN renal): 139 nM
- TGI (ACHN renal): 537 nM
- GI50 (HT29 colon): 257 nM
- TGI (HT29 colon): 1060 nM
- GI50 (SK-MEL-2 melanoma): 1640 nM
- TGI (SK-MEL-2 melanoma): 3120 nM
- GI50 (MALME-3M melanoma): 146 nM
- TGI (MALME-3M melanoma): 308 nM
- GI50 (OVCAR-8 ovarian): 169 nM
- TGI (OVCAR-8 ovarian): 1280 nM
- GI50 (SW-620 colon): 391 nM
- TGI (SW-620 colon): 1290 nM
- GI50 (SF-268 CNS): 362 nM
- TGI (SF-268 CNS): 958 nM
- GI50 (786-0 renal): 19.7 nM
- TGI (786-0 renal): 38 nM
- GI50 (BT-549 breast): 228 nM
- TGI (BT-549 breast): 574 nM
- GI50 (MCF7 breast): 1430 nM
- TGI (MCF7 breast): 3260 nM
- GI50 (TK-10 renal): 1750 nM
- TGI (TK-10 renal): 3210 nM
- GI50 (A498 renal): 620 nM
- TGI (A498 renal): 1480 nM
- GI50 (RXF 393 renal): 145 nM
- TGI (RXF 393 renal): 587 nM
- GI50 (NCI-H226 lung): 1070 nM
- TGI (NCI-H226 lung): 3430 nM
- GI50 (HCT-15 colon): 596 nM
- TGI (HCT-15 colon): 1840 nM
- GI50 (UACC-62 melanoma): 1300 nM
- TGI (UACC-62 melanoma): 2850 nM
- GI50 (SN12C renal): 412 nM
- TGI (SN12C renal): 2030 nM
- GI50 (KM12 colon): 291 nM
- TGI (KM12 colon): 898 nM
- GI50 (OVCAR-4 ovarian): 1700 nM
- TGI (OVCAR-4 ovarian): 5140 nM
- GI50 (SK-MEL-5 melanoma): 1620 nM
- TGI (SK-MEL-5 melanoma): 3010 nM
- GI50 (T-47D breast): 1020 nM
- TGI (T-47D breast): 2890 nM
- GI50 (SNB-75 CNS): 502 nM
- TGI (SNB-75 CNS): 990 nM
- GI50 (HL-60(TB) leukemia): 762 nM
- TGI (HL-60(TB) leukemia): 2800 nM
- GI50 (SK-MEL-28 melanoma): 1690 nM
- TGI (SK-MEL-28 melanoma): 3120 nM
- GI50 (HOP-92 NSCLC): 174 nM
- TGI (HOP-92 NSCLC): 443 nM
- GI50 (A549 NSCLC): 393 nM
- TGI (A549 NSCLC): 1640 nM
- GI50 (CAKI-1 renal): 96 nM
- TGI (CAKI-1 renal): 487 nM
- GI50 (EKVX NSCLC): 543 nM
- TGI (EKVX NSCLC): 2300 nM
- GI50 (UACC-257 melanoma): 1630 nM
- TGI (UACC-257 melanoma): 3170 nM
- GI50 (SF-539 CNS): 126 nM
- TGI (SF-539 CNS): 257 nM
- GI50 (HCT-116 colon): 889 nM
- TGI (HCT-116 colon): 2370 nM
- GI50 (SNB-19 CNS): 1700 nM
- TGI (SNB-19 CNS): 3160 nM
- GI50 (DU-145 prostate): 461 nM
- TGI (DU-145 prostate): 2300 nM
- GI50 (NCI-H23 lung): 20.9 nM
- TGI (NCI-H23 lung): 50.8 nM
- GI50 (OVCAR-3 ovarian): 156 nM
- TGI (OVCAR-3 ovarian): 828 nM
- GI50 (IGROV1 ovarian): 161 nM
- TGI (IGROV1 ovarian): 331 nM
- GI50 (SR leukemia): 26.8 nM
- TGI (SR leukemia): 107 nM
- GI50 (HS 578T breast): 1440 nM
- TGI (HS 578T breast): 7200 nM
- GI50 (PC-3 prostate): 511 nM
- TGI (PC-3 prostate): 1900 nM
- GI50 (U251 CNS): 163 nM
- TGI (U251 CNS): 644 nM
- GI50 (LOX IMVI melanoma): < 10 nM
- GI50 (HOP-62 NSCLC): 347 nM
- TGI (HOP-62 NSCLC): 1070 nM

Structure (SMILES): COC(=O)c1ccc2c(c1)CC1(C2)Cc2ccc3c(c2C1)CCC3 (stereo unspecified)
- TGI (NCI-H522 lung): 66800 nM
- TGI (SK-OV-3 ovarian): 51800 nM
- TGI (OVCAR-5 ovarian): > 100000 nM
- TGI (HCC-2998 colon): > 100000 nM
- TGI (RPMI-8226 leukemia): 74300 nM
- TGI (M14 melanoma): 13000 nM
- TGI (MDA-MB-435): 14300 nM
- TGI (K-562 leukemia): > 100000 nM
- TGI (COLO 205 colon): 32100 nM
- TGI (SF-295 CNS): 66400 nM
- TGI (MDA-MB-231 breast): 22100 nM
- TGI (CCRF-CEM leukemia): > 100000 nM
- TGI (MOLT-4 leukemia): 37400 nM
- TGI (ACHN renal): > 100000 nM
- TGI (HT29 colon): 55400 nM
- TGI (MALME-3M melanoma): 60500 nM
- TGI (OVCAR-8 ovarian): > 100000 nM
- TGI (SW-620 colon): > 100000 nM
- TGI (MDA-N): 17800 nM
- TGI (SF-268 CNS): > 100000 nM
- TGI (786-0 renal): > 100000 nM
- TGI (MCF7 breast): 81500 nM
- TGI (TK-10 renal): > 100000 nM
- TGI (RXF 393 renal): > 100000 nM
- TGI (NCI-H226 lung): > 100000 nM
- TGI (HCT-15 colon): > 100000 nM
- TGI (UACC-62 melanoma): 40600 nM
- TGI (SN12C renal): > 100000 nM
- TGI (KM12 colon): 40900 nM
- TGI (OVCAR-4 ovarian): > 100000 nM
- TGI (SK-MEL-5 melanoma): 33300 nM
- TGI (T-47D breast): 69100 nM
- TGI (SNB-75 CNS): > 100000 nM
- TGI (HL-60(TB) leukemia): 39700 nM
- TGI (SK-MEL-28 melanoma): > 100000 nM
- TGI (HOP-92 NSCLC): > 100000 nM
- TGI (A549 NSCLC): > 100000 nM
- TGI (EKVX NSCLC): > 100000 nM
- TGI (UACC-257 melanoma): 53800 nM
- TGI (SF-539 CNS): > 100000 nM
- TGI (HCT-116 colon): > 100000 nM
- TGI (SNB-19 CNS): > 100000 nM
- TGI (DU-145 prostate): > 100000 nM
- TGI (NCI-H23 lung): > 100000 nM
- TGI (OVCAR-3 ovarian): > 100000 nM
- TGI (IGROV1 ovarian): > 100000 nM
- TGI (SR leukemia): > 100000 nM
- TGI (HS 578T breast): > 100000 nM
- TGI (PC-3 prostate): 51900 nM
- TGI (U251 CNS): > 100000 nM
- TGI (LOX IMVI melanoma): 60700 nM
- TGI (HOP-62 NSCLC): 93000 nM
